According to patent publication US7485601B2, “Herbicide composition” (Sumitomo Chemical Company, Limited, priority 2001, dated 2009):

Experiments:
[1] = tested on: soybean; experiment: Phytotoxicity to soybean sown immediately after treatment (Test Example 1); format: in vivo; details: evaluated after 14 days
Protocol: (§1) Evaluation of phytotoxicity against a crop was shown by “no” when almost no phytotoxicity was observed, “low” when a low level phytotoxicity was observed, “medium” when a medium level phytotoxicity was observed and “high” when a high level phytotoxicity was observed.
(§2) A plastic pot of 11 cm in diameter and 8 cm in depth was filled with field soil. A tuber of yellow nutsedge (Cyperus esculentus) was planted and grown in a greenhouse for 21 days.
(§3) An emulsion of Compound A-1 was prepared by sufficiently mixing 5 parts of Compound A-1, 6 parts of Sorpol 3005×(surfactant, produced by Toho Chemical) and 89 parts of xylene.
(§4) Each of single use of an emulsion of Compound A-1, single use of an formulation of Chlorimuron-ethyl (commercial name: Classic, produced by Du Pont, containing 25% of Chlorimuron-ethyl), and a mixed composition of an emulsion of Compound A-1 and an formulation of Chlorimuron-ethyl, were diluted with water containing 1% Agri-dex (produced by Helena). Respective dilutions were uniformly sprayed from upper side onto foliages of yellow nutsedge grown as described above with a small sprayer such that the amounts of the active ingredients were the amounts shown in Table 4. […]
(§5) After the treatment, they were raised in a greenhouse for 25 days and the effect against weeds was evaluated. In addition, after 14 days of the treatment, the phytotoxicity to soybean was evaluated.

[2] = tested on: yellow nutsedge (Cyperus esculentus); experiment: Herbicide effect by foliar spray on pot-grown yellow nutsedge in greenhouse (Test Example 1); format: in vivo; details: evaluated 25 days after treatment, level 0-10
Protocol: as §1, §2, §3, §4, §5

CCOC(=O)c1ccccc1S(=O)(=O)NC(=O)Nc1nc(Cl)cc(OC)n1 [Chlorimuron-ethyl, ethyl 2-(4-chloro-6-methoxypyrimidin-2-ylcarbamoylsulfamoyl)benzoate]
Phytotoxicity soybean ([1]; 5 g/ha active ingredient): no | Phytotoxicity soybean ([1]; 20 g/ha active ingredient): no | Herbicide Effect yellow nutsedge ([2]; 5 g/ha active ingredient): 1 | Herbicide Effect yellow nutsedge ([2]; 20 g/ha active ingredient): 2
